Assay results published in patent publication US20260234159A1, “SMALL MOLECULE TREATMENT OF FATTY LIVER DISEASE AND HCC” (SCANDIEDGE THERAPEUTICS AB, priority 2023, published 2026).
Where two headings read alike, the source gives them in different places.

Experiments:
HepG2 cells [1] = assay: Mitochondrial membrane potential assay (TMRE); type: cell-based, human; conditions: 10 μM, one day
Experimental: (§1) HepG2 cells were seeded into a 6-well plate at 400,000 cells per well. After treatment with the compounds at desired concentration and time, TMRE (ab113852, abcam), Autophagy (ab139484, abcam), ROS (ab113851, abcam), and Lipid peroxidation (ab243377, abcam) assay were performed according to manufacturer's instructions. Fluorescence images were taken using ZOE™ Fluorescent Cell Imager (Biorad) and ROI of fluorescence intensity was measured and calculated by Image J. For microplate reader florescence assay, 40,000 of HepG2 cells were seeded into a 96-well plate and triplicated. GFP (Ex480 nm, Em530 nm) and RFP (Ex549 nm, Em574 nm) were measured using a microplate reader (Hidex Sense Meta Plus).

HepG2 cells [2] = assay: MTT cell viability after one week steatosis (ranking of target molecules); type: cell-based, human
Method in brief: (§2)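 HepG2 cells, 60,000 per well, kept one week in steatosis medium (high-glucose DMEM, 10 μg/ml insulin, 10 μM T0901317) with 10 μM compound. Medium changed at day 0, 3 and 5. Viability measured by MTT.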

[3] = as above; type: cell-based, human; conditions: human, HepG2 cells (wild type); HepG2, 10 μM, one week steatosis induce media, MTT; Control 100.00
Method in brief: as §2

HepG2 cells [4] = assay: Invasion assay (transwell); type: cell-based, human; conditions: for inhibition at 1 µM: Homo sapiens, HepG2, 24 hr, read-out: invasiveness reduced by
Experimental: The effects of the treatment with the compounds on the invasion ability of HepG2 and Huh7 cells were determined by 8 μm pores transwell chamber (Corning™ 3464, USA).
(§3) Transwell membrane was coated with 100 μl collagen (Sigma C3867, USA) diluted with PBS to a concentration of 1 mg/ml. After overnight incubation at 4° C., the collagen solution was discarded and the membrane was washed with PBS. 100,000 cells in 200 μl serum free media together with the tested compounds were added into the upper well and 600 μl of 10% FBS supplemented growth media was added to the lower well as an invasive attractant in a 24-well plate. Cells were incubated at 37° C. in a CO2 incubator for one day. The cells were fixed with 3.7% formaldehyde for 30 minutes at room temperature and washed with PBS twice. The cells were stained with 1% crystal violet in PBS for 20 minutes and residual cells in inner membrane were swabbed gently with a cotton swab. Invaded cells located at the outer membrane were imaged by ZOE Fluorescent Cell Imager (Bio-Rad, USA) and counted by image. For wound healing assay, 100,000 cells per well were seeded into 24-well plates and grown until 95-100% confluent. Linear wound was created by using a 200 μl pipette tip. Image was recorded at the time point of day 0 until control group wound closure with 1 μM of compounds by ZOE Fluorescent Cell Imager (Bio-Rad, USA). Wound areas were measured using ImageJ software.

HepG2 cells [5] = assay: Triglyceride (TAG) measurement assay, one week steatosis model; type: cell-based, human; conditions: Homo sapiens
Method in brief: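 HepG2 cells steatosis-induced for one week in high-glucose DMEM/10% FBS with 10 μg/ml insulin and 10 μM T0901317, media changed at days 0, 3 and 5, with 10 μM test compound throughout. Triglyceride measured colorimetrically (OD 570 nm); viability by MTT.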

JNK1/2/3 = assay: Western blot, JNK1/2/3 P54 and p46 isoforms; type: cell-based, human; conditions: 10 μM, 2 days
Experimental: HepG2 cells were seeded into a 6-well plate at 400,000 cells per well. After treatment with 10 μM of JNK-IN-5A and its derivatives for two days, lysates were harvested with CelLytic M (C2978, Sigma-Aldrich). […] SDS PAGE were performed using Mini-PROTEAN® TGX™ Precast Gels (Bio-Rad) and transferred using Trans-Blot® Turbo™ Transfer System (Bio-Rad). […] ImageQuantTMLAS 500 (29-0050-63, GE) was used to detect protein bands.

HepG2 cells [6] = assay: FACs analysis with PI staining (cell cycle); type: cell-based, human; conditions: for Cell population G0/G1 / Cell population G2/M / Cell population S: PI FACs, 10 μM, 2 days; for cell cycle distribution / arrest: PI FACS
Experimental: 400,000 HepG2 cells were seeded in a 6-well plated and treated with 10 μM of the compounds for 2 days. Cells were fixed with 70% ethanol and stained with 50 μg/ml PI. Prepared cells were analysed using BD FACS Canto II Flow Cytometry system at PE-A channel 10,000 cells per group. The data was histogram plotted with BD FACSDiva 9.0.

HepG2 cells [7] = assay: Wound healing assay; type: cell-based; conditions: Homo sapiens, HepG2, 96 h, day 4, untreated 100% wound closure, read-out: wound healing delayed by
Experimental: as §3

HepG2 cells [8] = assay: MTT cell viability / IC50 in growth media; type: cell-based, human; conditions: 30 μM to 30 nM; for IC50: Homo sapiens, 48 h, HepG2, treatment for 2 days
Experimental: (§4) The cytotoxic effects of the synthesized drugs on the HepG2 cells were tested by MTT (Thiazolyl Blue Tetrazolium Bromide) method. HepG2 cells were seeded 2×10^4 cells per well in 96-well plate in 200 μL growth media. […] After the incubation period, 5 mg/ml MTT (M2128, Sigma-Aldrich) solution in PBS (10 μL) was added to each well. After 1 hr, the MTT solution and all media were removed from the wells. 100 μl of DMSO was added and mixed to dissolve the formazan crystals. Cell viability was analysed by measuring the absorbance of the dissolved formazan in a microplate reader at a wavelength of 570 nm with microplate reader (Hidex Sense Beta Plus).
(§5) HepG2 cells were maintained and used with RPMI 1640 (R2405, Sigma-Aldrich) supplemented with 10% fetal bovine serum (F7524, Sigma-Aldrich), 1% P/S (P4333, Sigma-Aldrich). 20,000 cells per well of HepG2 cells were seeded into a 96-well plate and triplicated for MTT assay and LDH assay. Cell viability was measured by MTT assay (M6494, ThermoFisher) and cytotoxicity was measured by LDH assay kit (ab65393, abcam) by following manufacturer's instructions. Optical density (O.D) was numerated using a microplate reader (Hidex Sense Meta Plus).

[9] = MTT cell viability / IC50 in growth media; type: cell-based, human; conditions: human, HepG2 cells, 10 μM; for viability at 2 days, 10 µM: treatment for 2 days; for viability at 4 day, 10 µM: day 4
Experimental: as §4, §5

HepG2 cells [10] = assay: Autophagy assay; type: cell-based, human; conditions: 10 μM, one day
Experimental: as §1

GPX4 = assay: Western blot, GPX4; type: cell-based, human; conditions: compared to the control
Experimental: (§6) HepG2 cells were seeded into a 6-well plate at 400,000 cells per well. After treatment with 10 μM of JNK-IN-5A and its derivatives for two days, lysates were harvested with CelLytic M (C2978, Sigma-Aldrich). 20 μg lysate was prepared with 2× Laemmli Sample Buffer (1610737, Biorad). SDS PAGE were performed using Mini-PROTEAN® TGX™ Precast Gels (Bio-Rad) and transferred using Trans-Blot® Turbo™ Transfer System (Bio-Rad). Primary antibody, PARP (95425, Cell signalling), Caspase 3 (ab32042, abcam), Bcl-2 (ab182858), STAT1 (HPA000982, Merk), PKL (06653, Sigma), PKM (4053S, Cell signalling), GAPDH (ab8245, abcam), P53 (ab32389, abcam), p21 (ab109199, abcam), p-S349 p62 (ab211324, abcam), p62 (ab109012, abcam), c-Myc (ab32072, abcam), GPX4 (ab125066, abcam), MMP9 (MA5-32705, Invitrogen), β-actin (ab8227, abcam), and α-tubulin (ab7291, abcam) were blotted overnight and Goat Anti-Rabbit HRP (ab205718) and goat anti-mouse IgG-HRP (sc2005, Santa Cruz Biotechnology, Inc.) were blotted for secondary antibody for one hour. ImageQuantTMLAS 500 (29-0050-63, GE) was used to detect protein bands.

PARP = assay: Western blot, cleaved PARP; type: cell-based, human; conditions: 10 μM, 2 days
Experimental: as §6

p21 = assay: Nuclear protein western blot, p21; type: cell-based, human; conditions: 10 μM, 2 days
Experimental: as §6

Caspase 3 = assay: Western blot, active caspase 3; type: cell-based, human; conditions: 10 μM, 2 days
Experimental: as §6

c-Myc = assay: Nuclear protein western blot, c-Myc; type: cell-based, human; conditions: 10 μM, 2 days
Experimental: as §6

[11] = 168 h, HepG2, 10 μM, one week steatosis induce media, Control 100.00, read-out: TAG (%)

Row | IC50 (HepG2 cells [8]) | SMILES | mitochondrial membrane potential (HepG2 cells [1]) | cell viability of HepG2 (HepG2 cells [2]) | viability at 1 week, 10 µM [3] | inhibition at 1 µM (HepG2 cells [4]) | activity at 10 µM (HepG2 cells [5]; [11]) | JNK1/2/3 p46 expression (JNK1/2/3) | Cell population G0/G1 (HepG2 cells [6]) | Cell population G2/M (HepG2 cells [6]) | Cell population S (HepG2 cells [6]) | inhibition at 1 µM (HepG2 cells [7]) | viability at 2 days, 10 µM [9] | autophagy GFP signals (HepG2 cells [10]) | GPX4 expression levels (GPX4) | increase in cleaved PARP vs untreated control (PARP) | p21 nuclear localization (p21) | active caspase 3 levels (Caspase 3) | nuclear c-Myc expression (c-Myc) | cell cycle distribution / arrest (HepG2 cells [6]) | dose dependence of cell viability (HepG2 cells [8]) | also measured
1 | 15.9 µM | N#Cc1c(NC(=O)c2cccc3ccccc23)sc2c1CCN(C(=O)Nc1ccccc1Cl)C2 [PKL-A156] | significantly decreased | exceptionally low cell viability | 26.6% | 14% | 13.5% | not significantly altered | 30.1 | 60.8 | 2.3 | 26.2% | 53.7% | – | – | – | – | – | – | – | – | activity at 10 µM (HepG2 cells [5]; HepG2, 168 h, ratio between TAG content and cell viability, Control 100.0, read-out: TAG/cell viability): 50.8%
2 | 7.6 µM | N#Cc1c(NC(=O)c2cccc3ccccc23)sc2c1CCN(C(=O)Nc1ccccc1C(F)(F)F)C2 [PKL-A158] | significantly decreased | exceptionally low cell viability | 9.59% | 20.8% | 8.35% | not significantly altered | 31.6 | 60.3 | 3.5 | 39.5% | 51.9% | – | – | – | – | – | – | – | – | –
3 | 5.91 µM | CNC(=O)c1cc(Oc2ccc(NC(=O)Nc3ccc(Cl)c(C(F)(F)F)c3)c(F)c2)ccn1 [Regorafenib, regorafenib, reference compound] | decrease | – | – | 21% | – | 0.65 times | 70.5 | 14.9 | 9.7 | 44.8% | 41.1% | did not induce autophagy | significantly higher | 16 times | not | 3.61 times | decreased | did not alter the cell cycle distribution significantly | dose-dependent decrease in cell viability | viability at 4 day, 10 µM [9]: 13.4%

Row | SMILES | IC50 (HepG2 cells [8]) | mitochondrial membrane potential (HepG2 cells [1]) | cell viability of HepG2 (HepG2 cells [2]) | viability at 1 week, 10 µM [3] | inhibition at 1 µM (HepG2 cells [4]) | activity at 10 µM (HepG2 cells [5]; [11]) | JNK1/2/3 p46 expression (JNK1/2/3) | Cell population G0/G1 (HepG2 cells [6]) | Cell population G2/M (HepG2 cells [6]) | Cell population S (HepG2 cells [6]) | inhibition at 1 µM (HepG2 cells [7]) | viability at 2 days, 10 µM [9] | autophagy GFP signals (HepG2 cells [10]) | GPX4 expression levels (GPX4) | increase in cleaved PARP vs untreated control (PARP) | p21 nuclear localization (p21) | active caspase 3 levels (Caspase 3) | nuclear c-Myc expression (c-Myc) | cell cycle distribution / arrest (HepG2 cells [6]) | dose dependence of cell viability (HepG2 cells [8]) | also measured
4 | CNC(=O)c1cc(Oc2ccc(NC(=O)Nc3ccc(Cl)c(C(F)(F)F)c3)cc2)ccn1 [Sorafenib, sorafenib, reference compound] | 8.64 µM | decrease | – | – | – | – | 0.81 times | – | – | 10.1 | 35% | 51% | did not induce autophagy | significantly higher | 10 times | not | 4.35 times | decreased | did not alter the cell cycle distribution significantly | dose-dependent decrease in cell viability | invasiveness reduced by (HepG2 cells [4]; 1 μM, 24 hr): 28.7%±2.9; viability at 4 day, 10 µM [9]: 19.2%
